This note sets out measurements from patent US9051351B2, “Hepatocyte growth factor mimics as therapeutic agents” (Washington State University, priority 2011, dated 2015).

Each structure is given as a SMILES string. Entries after “also recorded” stand apart in the source; their conditions may differ. Like-named read-outs stand apart in the source and are kept apart here. Where a SMILES comes first, the peptide text is derived from it. [ ]: non-standard residue; d: D form. The star is where a group is joined. Hexanoyl = CCCCCC(=O)*; Ahx = NCCCCCC(=O)O

A short description of series [1]: Serum metabolism of peptides in rat serum. The format is in vitro ADME. Conditions: male, Sprague Dawley, rat, rat serum. The procedure: Four month old male Sprague Dawley rats were used as the blood source for the metabolism studies. Blood was collected from left/right jugular veins of the rats using sterile catheters. After a 30 minute incubation on ice, the blood was centrifuged at 1000 rpm for 15 min to separate the serum. Serum was then transferred to clean tubes and stored at −20° C. until use.
Except for dihexa all drug solutions were prepared in HPLC grade water at 5 mg/ml. Stock drugs were kept in powder form and stored at −20° C. Serum metabolism experimental procedure and analysis. Rat blood serum samples were pre-equilibrated at 37° C. and then 10 μL (50 μg) of each drug solution was added to 90 μL of rat serum in 1.5 mL Eppendorf tube maintained at 37° C. At specified time intervals, metabolism was terminated by precipitating proteins with the addition of 1 ml of a solution of acetonitrile (ACN) and acetic acid (9:1, v/v). The terminated reaction mixture was stored in refrigerator (5° C.) overnight and centrifuged (14,000 rpm) for 30 min to remove precipitated proteins. The separated supernatant was dried in vacuum concentrator. The dried samples were reconstituted using 200 μL HPLC mobile phase (10% v/v ACN in water), vortexed briefly, and subjected to HPLC separation and analysis. A serum blank experiment to detect any interfering peaks in the HPLC chromatogram was performed by in an identical manner except that no drug was added. Zero time values for each drug candidate were established by first treating the serum with ACN, processing the sample as described above, adding drug, and then performing HPLC analysis.
The degradation rate of drug was determined by measuring the decrease in area under curve (AUC) at the retention time of drug over time. The AUC obtained from the zero time experiment was considered to represent the “100%” drug concentration and was used to determine the decreased drug concentration at each specified time interval. The semi-logarithmic plot of drug concentration vs. time was generated to determine degradation kinetic constant (k) of the tested drug. The half-life of drug was (t1/2) was calculated by 0.693/k.
Analysis of samples was performed using an HPLC system. The system consisted of a communications bus module, pumps, and a photodiode array detector. Separation was achieved using a C18 (250 mm×4.6 mm id., 5 μm particle size) reverse phase column. The column temperature was set at 40° C. The mobile phase consisted of a mixture of ACN and water with 0.1% TFA and was degassed by ultrasonication. Samples were introduced by manual mode with an injection volume of 250 μL. The drug was eluted with a flow rate of 1 mL/min and detected by PDA detector at […] wavelengths of 215 and 280 nm.

Series [2] concerns hippocampal neurons. Put plainly: H2O2 oxidative stress in dissociated hippocampal neurons. The format is cell-based. Conditions: 100 μM H2O2 24 hrs +/− HGF 5 ng/ml and/or Dihexa. Here is the method: FIG. 47. […] Dissociated hippocampal neurons were treated with 100 μM H2O2 for 24 hrs+/−HGF at sub-threshold concentrations 5 ng/ml and or Dihexa at 2 different concentrations 10^−8M and […]. (*p<0.05,** p<0.01; Mean+/−SEM).

As for `CCCCCC(=O)N[C@@H](Cc1ccc(O)cc1)C(=O)N[C@H](C(=O)NCCCCCC(N)=O)[C@@H](C)CC` [Dihexa, N-hexanoic-Tyr-Ile-(6)-aminohexanoic amide] (Hexanoyl-Tyr-Ile-[Ahx]-NH2), the half-life at 0.5 mg/mL in series [1] (37° C., Mean +/− SD, N = 3, read-out: Half-Life (min), serum stability) came out at 336 min; in series [1] (read-out: t1/2 in rat serum), 330 min. In addition, the “protection of neurons from oxidative stress” value in series [2] is “act synergistically to protect neurons; also recorded: protects neurons from oxidative stress”.
